# Active and inactive are the calls of the source. The calls are words filed in the database; no cut-off is given here.
# Assays:
# [1] = system: MCF7; assay: cells; conditions: Homo sapiens, MCF7, 72 h
# Description: Antiproliferative activity against ER-positive human MCF7 cells assessed as reduction in cell viability measured after 72 hrs by AlamarBlue assay
# [2] = system: PBMC; assay: Induction of apoptosis in human PBMCs assessed as apoptotic cells at 10 uM measured after 72 hrs by propidium iodide staining-based flow cytometric analysis (reference value: 1.5 +/- 0.6%); format: cell-based
# [3] = system: PBMC; assay: Induction of apoptosis in human PBMCs assessed as accumulation at G2/M-phase at 10 uM measured after 72 hrs by propidium iodide staining-based flow cytometric analysis; format: cell-based
# [4] = system: MCF7; assay: Induction of apoptosis in human MCF7 cells assessed as apoptotic cells at 10 uM measured after 72 hrs by propidium iodide staining-based flow cytometric analysis (reference value: 5.5 +/- 1.3%); format: functional
# [5] = biological target: T1, Estrogen receptor (Homo sapiens, UniProt P03372)
# T1 sequence (P03372 whole entry): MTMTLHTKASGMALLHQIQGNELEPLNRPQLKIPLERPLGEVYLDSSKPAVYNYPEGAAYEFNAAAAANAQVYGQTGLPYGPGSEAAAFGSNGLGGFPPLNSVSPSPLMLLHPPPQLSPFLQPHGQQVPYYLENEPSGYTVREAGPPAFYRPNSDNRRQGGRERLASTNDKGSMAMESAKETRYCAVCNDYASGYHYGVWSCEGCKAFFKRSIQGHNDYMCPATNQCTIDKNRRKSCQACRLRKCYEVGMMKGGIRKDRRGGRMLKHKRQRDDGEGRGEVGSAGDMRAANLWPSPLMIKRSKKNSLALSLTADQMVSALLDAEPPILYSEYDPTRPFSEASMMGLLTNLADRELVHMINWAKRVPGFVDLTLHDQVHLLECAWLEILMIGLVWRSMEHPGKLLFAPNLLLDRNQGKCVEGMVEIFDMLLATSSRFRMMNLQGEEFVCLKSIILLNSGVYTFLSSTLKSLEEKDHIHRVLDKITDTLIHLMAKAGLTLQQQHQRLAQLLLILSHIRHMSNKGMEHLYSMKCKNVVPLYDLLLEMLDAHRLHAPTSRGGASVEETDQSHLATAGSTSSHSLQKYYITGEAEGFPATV
# Description: Inhibition of ER-alpha (unknown origin) by Lanthascreen-FRET assay
# [6] = biological target: Estrogen receptor beta (Homo sapiens, UniProt Q92731)
# Description: Inhibition of ER-beta (unknown origin) by Lanthascreen-FRET assay
# [7] = system: MCF7; assay: Induction of apoptosis in human MCF7 cells assessed as accumulation at G2/M-phase at 10 uM measured after 72 hrs by propidium iodide staining-based flow cytometric analysis; format: functional, cell-based
# Estrogen receptor beta, sequence (Q92731 whole entry): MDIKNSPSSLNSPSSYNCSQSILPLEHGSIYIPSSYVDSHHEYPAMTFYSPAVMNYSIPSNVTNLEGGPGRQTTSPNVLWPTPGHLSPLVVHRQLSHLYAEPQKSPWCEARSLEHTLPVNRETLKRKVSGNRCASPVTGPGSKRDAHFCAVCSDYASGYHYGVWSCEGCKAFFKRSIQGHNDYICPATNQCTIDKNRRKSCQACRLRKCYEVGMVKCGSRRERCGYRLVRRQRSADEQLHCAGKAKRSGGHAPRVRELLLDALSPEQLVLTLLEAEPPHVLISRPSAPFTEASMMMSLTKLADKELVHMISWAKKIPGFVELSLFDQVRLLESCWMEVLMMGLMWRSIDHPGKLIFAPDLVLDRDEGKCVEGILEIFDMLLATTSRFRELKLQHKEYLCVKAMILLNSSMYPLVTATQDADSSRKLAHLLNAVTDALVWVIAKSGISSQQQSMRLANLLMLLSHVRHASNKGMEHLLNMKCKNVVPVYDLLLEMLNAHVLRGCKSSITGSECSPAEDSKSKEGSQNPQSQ
Compound,IC50 [1] [µM],other results
Cc1c(-c2ccc(O)cc2)n(Cc2ccc(F)cc2)c2ccc(O)cc12,41,
CNCCCCCCCCn1c(-c2ccc(O)cc2)c(C)c2cc(O)ccc21,38.9,
Cc1c(-c2ccc(O)cc2)n(Cc2ccc(O)cc2)c2ccc(O)cc12,38.9,
COc1ccc(/C=C(/C(=O)N(C)CCCCCCCCn2c(-c3ccc(O)cc3)c(C)c3cc(O)ccc32)c2cc(OC)c(OC)c(OC)c2)cc1O,2.95,
Cc1c(-c2ccc(O)cc2)n(CCCCCn2c(-c3ccc(O)cc3)c(C)c3cc(O)ccc32)c2ccc(O)cc12,4.16,
COc1ccc(/C=C(/C(=O)N(C)CCCCCCCCCCCCn2c(-c3ccc(O)cc3)c(C)c3cc(O)ccc32)c2cc(OC)c(OC)c(OC)c2)cc1O,1.86,Activity [2]: Non-toxic; Activity [3]: Non-toxic; Activity [4]: 42.1%; IC50 [5]: 0.574 µM; IC50 [6]: 0.155 µM; Activity [7]: inactive
COc1ccc(/C=C(/C(=O)N(C)CCCCCn2c(-c3ccc(O)cc3)c(C)c3cc(O)ccc32)c2cc(OC)c(OC)c(OC)c2)cc1O,2.93,
Cc1c(-c2ccc(O)cc2)n(CCCCn2c(-c3ccc(O)cc3)c(C)c3cc(O)ccc32)c2ccc(O)cc12,2.75,Activity [2]: 16.7%; Activity [3]: Non-toxic; Activity [4]: 54.7%; IC50 [5]: 0.436 µM; IC50 [6]: 0.041 µM; Activity [7]: inactive
CNCCCCn1c(-c2ccc(O)cc2)c(C)c2cc(O)ccc21,40.7,
Cc1c(-c2ccc(O)cc2)n(CCCCCCCCn2c(-c3ccc(O)cc3)c(C)c3cc(O)ccc32)c2ccc(O)cc12,6.6,
CCCCn1c(-c2ccc(O)cc2)c(C)c2cc(O)ccc21,34,
COc1ccc(/C=C(/C(=O)N(C)CCCCCCn2c(-c3ccc(O)cc3)c(C)c3cc(O)ccc32)c2cc(OC)c(OC)c(OC)c2)cc1O,2.34,
Cc1c(-c2ccc(O)cc2)n(CCO)c2ccc(O)cc12,17.7,
COc1ccc(-c2c(C)c3cc(OC)ccc3n2CCCCN(C)C(=O)/C(=C/c2ccc(OC)c(O)c2)c2cc(OC)c(OC)c(OC)c2)cc1,81.3,
CNCCCCCCCCCCCCn1c(-c2ccc(O)cc2)c(C)c2cc(O)ccc21,33,Activity [2]: Non-toxic; Activity [3]: Non-toxic; Activity [4]: 7.5%; IC50 [5]: 0.38 µM; IC50 [6]: 1.66 µM; Activity [7]: inactive
CNCCCCCCn1c(-c2ccc(O)cc2)c(C)c2cc(O)ccc21,41.7,
CNCCCCCn1c(-c2ccc(O)cc2)c(C)c2cc(O)ccc21,49,
Cc1c(-c2ccc(O)cc2)n(CCCCCCn2c(-c3ccc(O)cc3)c(C)c3cc(O)ccc32)c2ccc(O)cc12,8.16,
COc1cc(Cn2c(-c3ccc(O)cc3)c(C)c3cc(O)ccc32)cc(OC)c1OC,332,
Cc1c(-c2ccc(O)cc2)n(CCCCCCCCCCCCn2c(-c3ccc(O)cc3)c(C)c3cc(O)ccc32)c2ccc(O)cc12,5.24,
COc1ccc(/C=C(/C(=O)N(C)CCCCn2c(-c3ccc(O)cc3)c(C)c3cc(O)ccc32)c2cc(OC)c(OC)c(OC)c2)cc1O,1.99,
Cc1c(-c2ccc(O)cc2)n(Cc2ccc(Cn3c(-c4ccc(O)cc4)c(C)c4cc(O)ccc43)cc2)c2ccc(O)cc12,3.5,

# Source: ChEMBL document CHEMBL3822435, “Synthesis, antiproliferative and pro-apoptotic activity of 2-phenylindoles” (Bioorg Med Chem, 2016)
